Laboratory results taken from patent US20170037028A1 (BAYER PHARMA AKTIENGESELLSCHAFT, priority 2013, published 2017).

Target: T1, GLUT1 (Homo sapiens, UniProt P11166)
T1 sequence (P11166 1-492): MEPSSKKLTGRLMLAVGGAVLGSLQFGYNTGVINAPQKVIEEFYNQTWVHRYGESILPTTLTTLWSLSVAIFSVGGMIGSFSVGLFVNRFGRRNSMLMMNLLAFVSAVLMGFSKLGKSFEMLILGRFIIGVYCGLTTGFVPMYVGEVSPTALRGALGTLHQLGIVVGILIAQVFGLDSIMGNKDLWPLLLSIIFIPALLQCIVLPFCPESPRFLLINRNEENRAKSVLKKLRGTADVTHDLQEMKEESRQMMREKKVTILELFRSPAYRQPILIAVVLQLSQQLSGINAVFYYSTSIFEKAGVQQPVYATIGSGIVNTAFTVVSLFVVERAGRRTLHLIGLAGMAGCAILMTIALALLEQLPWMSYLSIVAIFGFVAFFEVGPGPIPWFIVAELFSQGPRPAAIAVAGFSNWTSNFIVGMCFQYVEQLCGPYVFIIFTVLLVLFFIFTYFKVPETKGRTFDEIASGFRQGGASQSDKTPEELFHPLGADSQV
Assay: Indirect measurement of GLUT1 activity by quantification of intracellular ATP levels (glucose induced ATP increase)
Format: cell-based
Design: endogenous in cells; host or cells: DLD1 or CHO-K1
Conditions: read-out: IC50 regarding glucose induced ATP increase (GLUT1 inhibition)
How it was run: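 Intracellular ATP was measured by CellTiter-Glo luminescence as an indirect readout of transport: glucose-driven for GLUT1, fructose-driven for GLUT2. DLD1 or CHO-K1 cells were used alongside an oxidative phosphorylation inhibitor. Beforehand, cells were held overnight in glucose-free 1% FCS medium to deplete ATP.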

Cc1nn(Cc2ccc(C(=O)NCc3cccc(F)c3)cc2)c(C)c1NC(=O)c1cc(C(F)(F)F)nc2ccc(Br)cc12 [Example 1163]
IC50: 166 nM

Cc1nn(Cc2ccc(C(=O)NC[C@@H]3CCCO3)cc2)c(C)c1NC(=O)c1cc(C(F)(F)F)nc2ccc(Br)cc12 [Example 1164]
IC50: 167 nM

COc1ccc(CCCn2nc(C)c(NC(=O)c3cc(C(F)(F)F)nc4ccc(Br)cc34)c2C)cc1 [Example 1165]
IC50: 168 nM

Cc1nn(Cc2ccc(C(=O)NCCCN(C)C)cc2)c(C)c1NC(=O)c1cc(C(F)(F)F)nc2ccc(Br)cc12 [Example 1167]
IC50: 171 nM

CC(=O)NCCNC(=O)c1ccc(Cn2nc(C)c(NC(=O)c3cc(C(F)(F)F)nc4ccc(Br)cc34)c2C)cc1 [Example 1168]
IC50: 179 nM

CC(=O)Nc1ccc2nc(C(F)(F)F)cc(C(=O)Nc3c(C)nn(Cc4ccc(F)cc4)c3C)c2c1 [Example 1169]
IC50: 182 nM

Cc1nn(Cc2ccc(C(=O)NCc3cccnc3)cn2)c(C)c1NC(=O)c1cc(C(F)(F)F)nc2ccc(Br)cc12 [Example 1170]
IC50: 189 nM

COC(=O)N1CCC(Cn2nc(C)c(NC(=O)c3cc(C(F)(F)F)nc4ccc(Br)cc34)c2C)CC1 [Example 1171]
IC50: 195 nM

C=Cc1ccc(Cn2nc(C)c(NC(=O)c3cc(OC)nc4ccccc34)c2C)cc1 [Example 1172]
IC50: 198 nM

Cc1nn(Cc2ccc(C(=O)Nc3ccncc3)cc2)c(C)c1NC(=O)c1cc(C(F)(F)F)nc2ccc(Br)cc12 [Example 1173]
IC50: 198 nM

Cc1nn(Cc2ccc(C(=O)NC(C)(C)C)cc2)c(C)c1NC(=O)c1cc(C(F)(F)F)nc2ccc(Br)cc12 [Example 1174]
IC50: 203 nM

Cc1nn(CC2CCCO2)c(C)c1NC(=O)c1cc(C(F)(F)F)nc2ccc(Br)cc12 (stereo not drawn) [Example 1175]
IC50: 205 nM

Cc1ccc2nc(C)cc(C(=O)Nc3c(C)nn(CC4CCOCC4)c3C)c2c1 [Example 1176]
IC50: 208 nM

Cc1c(NC(=O)c2cc(C(F)(F)F)nc3ccc(Br)cc23)c(C(F)(F)F)nn1Cc1ccc(C(=O)NCCN(C)C)cn1 [Example 1177]
IC50: 221 nM

Cc1nn(Cc2ccc(C(=O)NCCCc3ccccc3)cc2)c(C)c1NC(=O)c1cc(C(F)(F)F)nc2ccc(Br)cc12 [Example 1178]
IC50: 224 nM

Cc1nn(Cc2ccc(C(=O)N[C@H](C)CO)cc2)c(C)c1NC(=O)c1cc(C(F)(F)F)nc2ccc(Br)cc12 [Example 1179]
IC50: 228 nM

Cc1nn(Cc2ccc(F)cc2)c(C(=O)N(C)C)c1NC(=O)c1cc(C(F)(F)F)nc2ccc(Br)cc12 [Example 1180]
IC50: 231 nM

COc1cc(C(=O)Nc2c(C)nn(CCc3ccc(F)cc3)c2C)c2ccccc2n1 [Example 1181]
IC50: 237 nM

Cc1nn(Cc2ccc(C(=O)NC3CCCC3)cc2)c(C)c1NC(=O)c1cc(C(F)(F)F)nc2ccc(Br)cc12 [Example 1182]
IC50: 238 nM

COc1ccccc1CNC(=O)c1ccc(Cn2nc(C)c(NC(=O)c3cc(C(F)(F)F)nc4ccc(Br)cc34)c2C)cc1 [Example 1183]
IC50: 241 nM

Cc1nn(CC2CCN(C(=O)OC(C)(C)C)CC2)c(C)c1NC(=O)c1cc(C(N)=O)nc2ccccc12 [Example 1184]
IC50: 242 nM

Cc1nn(Cc2ccc(C(=O)Nc3cccc(C(N)=O)c3)cc2)c(C)c1NC(=O)c1cc(C(F)(F)F)nc2ccc(Br)cc12 [Example 1185]
IC50: 247 nM

Cc1nn(Cc2ccc(C(=O)N(C)CCO)cc2)c(C)c1NC(=O)c1cc(C(F)(F)F)nc2ccc(Br)cc12 [Example 1186]
IC50: 277 nM

CNC(=O)CN(C)C(=O)c1ccc(Cn2nc(C)c(NC(=O)c3cc(C(F)(F)F)nc4ccc(Br)cc34)c2C)cc1 [Example 1187]
IC50: 288 nM

COc1cc(C(=O)Nc2c(C(F)(F)F)nn(Cc3ccncc3C#N)c2C)c2ccccc2n1 [Example 1188]
IC50: 290 nM

COc1cc(C(=O)Nc2c(C)nn(Cc3ccncc3C#N)c2C)c2ccccc2n1 [Example 1189]
IC50: 310 nM

Cc1cccc(CNC(=O)c2ccc(Cn3nc(C)c(NC(=O)c4cc(C(F)(F)F)nc5ccc(Br)cc45)c3C)cc2)c1 [Example 1190]
IC50: 312 nM
